Reference: PubChem BioAssay AID2060614 (Molecular Pharmacology Branch, DTP, NCI, 2025)

Tested on: 598228-144-R-J1-PDC complex spheroids, viability
Assay: Anticancer human tumor 598228-144-R-J1-PDC patient-derived serous endometrial adenocarcinoma cell line growth inhibition [CLK]
Conditions: for IC50: curve of first compound; for viability, T/C: stronger effect = lower value; active means viability on the fitted dose curve at most 10% of control; inactive means the rest
Outline: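 Multi-cell-type spheroids combined patient-derived tumor cells with HUVEC endothelial cells and human mesenchymal stem cells. Paired agents were dosed in half-log steps down from about clinical Cmax, or from 10 microM where Cmax was unknown.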

[1] = second compound 0.0316 µM, first compound 0.0316 µM
[2] = second compound 0.0316 µM, first compound 0.1 µM
[3] = second compound 0.0316 µM, first compound 0.316 µM
[4] = second compound 0.0316 µM, first compound 1 µM
[5] = second compound 0.1 µM, first compound 0.0316 µM
[6] = second compound 0.1 µM, first compound 0.1 µM
[7] = second compound 0.1 µM, first compound 0.316 µM
[8] = second compound 0.1 µM, first compound 1 µM
[9] = second compound 0.316 µM, first compound 0.0316 µM
[10] = second compound 0.316 µM, first compound 0.1 µM
[11] = second compound 0.316 µM, first compound 0.316 µM
[12] = second compound 0.316 µM, first compound 1 µM
[13] = second compound 1 µM, first compound 0.0316 µM
[14] = second compound 1 µM, first compound 0.1 µM
[15] = second compound 1 µM, first compound 0.316 µM
[16] = second compound 1 µM, first compound 1 µM
[17] = second compound 3.16 µM, first compound 0.0316 µM
[18] = second compound 3.16 µM, first compound 0.1 µM
[19] = second compound 3.16 µM, first compound 0.316 µM
[20] = second compound 3.16 µM, first compound 1 µM
[21] = second compound 10 µM, first compound 0.0316 µM
[22] = second compound 10 µM, first compound 0.1 µM
[23] = second compound 10 µM, first compound 0.316 µM
[24] = second compound 10 µM, first compound 1 µM
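Further: spheroids exposed to compounds for seven days before readout.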
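Wherever viability, T/C is given: 100% = DMSO vehicle control wells.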

CC(=O)O[C@H]1C(=O)[C@@]2(C)[C@H]([C@H](OC(=O)c3ccccc3)[C@]3(O)C[C@H](OC(=O)[C@H](O)[C@@H](NC(=O)c4ccccc4)c4ccccc4)C(C)=C1C3(C)C)[C@]1(OC(C)=O)CO[C@@H]1C[C@@H]2O + CN1CCN(c2cc(C(=O)Nc3cc4cc(-c5cnn(C)c5)ccc4cn3)ccn2)CC1
active: viability, T/C [13] 1.6% | viability, T/C [14] 1.9% | viability, T/C [15] 4.17% | viability, T/C [16] 1.92% | viability, T/C (second compound 1 µM, first compound 3.16 µM) 2.39% | viability, T/C (second compound 1 µM, first compound 10 µM) 1.8% | viability, T/C [17] 1.6% | viability, T/C [18] 3.09% | viability, T/C [19] 2.8% | viability, T/C [20] 1.31% | viability, T/C (second compound 3.16 µM, first compound 3.16 µM) 1.95% | viability, T/C (second compound 3.16 µM, first compound 10 µM) 2.83% | viability, T/C [21] 2.83% | viability, T/C [22] 0.86% | viability, T/C [23] 2.92% | viability, T/C [24] 1.09% | viability, T/C (second compound 10 µM, first compound 3.16 µM) 2.45% | viability, T/C (second compound 10 µM, first compound 10 µM) 2.11%
< 31.6 nM: IC50 (second compound 0.0316 µM) | IC50 (second compound 0.316 µM) | IC50 (second compound 1 µM) | IC50 (second compound 3.16 µM) | IC50 (second compound 10 µM)
> 10000 nM: IC50 (second compound 0.1 µM)
inactive: viability, T/C [1] 40.8% | viability, T/C [2] 44.8% | viability, T/C [3] 32.3% | viability, T/C [4] 34.3% | viability, T/C (second compound 0.0316 µM, first compound 3.16 µM) 33.1% | viability, T/C (second compound 0.0316 µM, first compound 10 µM) 37.7% | viability, T/C [5] 72.7% | viability, T/C [6] 61.2% | viability, T/C [7] 58.8% | viability, T/C [8] 64.5% | viability, T/C (second compound 0.1 µM, first compound 3.16 µM) 51.6% | viability, T/C (second compound 0.1 µM, first compound 10 µM) 51.1% | viability, T/C [9] 19% | viability, T/C [10] 15.1% | viability, T/C [11] 20.1% | viability, T/C [12] 14.2% | viability, T/C (second compound 0.316 µM, first compound 3.16 µM) 18% | viability, T/C (second compound 0.316 µM, first compound 10 µM) 18.5%

CCc1c2c(nc3ccc(O)cc13)-c1cc3c(c(=O)n1C2)COC(=O)[C@]3(O)CC + CN1CCN(c2cc(C(=O)Nc3cc4cc(-c5cnn(C)c5)ccc4cn3)ccn2)CC1
96 nM: IC50 (second compound 0.1 µM)
inactive: viability, T/C (second compound 0.0316 µM, first compound 0.00316 µM) 104% | viability, T/C (second compound 0.0316 µM, first compound 0.01 µM) 91.3% | viability, T/C [1] 73.8% | viability, T/C [2] 39.2% | viability, T/C [3] 16.6% | viability, T/C [4] 13.1% | viability, T/C (second compound 0.1 µM, first compound 0.00316 µM) 152% | viability, T/C (second compound 0.1 µM, first compound 0.01 µM) 121% | viability, T/C [5] 84% | viability, T/C [6] 47.4% | viability, T/C [7] 23.3% | viability, T/C [8] 9.49% | viability, T/C (second compound 0.316 µM, first compound 0.00316 µM) 17.4% | viability, T/C (second compound 0.316 µM, first compound 0.01 µM) 17.4% | viability, T/C [9] 18.3% | viability, T/C [10] 13.1%
68.3 nM: IC50 (second compound 0.0316 µM)
active: viability, T/C [11] 5.94% | viability, T/C [12] 5.35% | viability, T/C (second compound 1 µM, first compound 0.00316 µM) 1.34% | viability, T/C (second compound 1 µM, first compound 0.01 µM) 0.98% | viability, T/C [13] 2.66% | viability, T/C [14] 0.5% | viability, T/C [15] 2.92% | viability, T/C [16] 4.75% | viability, T/C (second compound 3.16 µM, first compound 0.00316 µM) 1.44% | viability, T/C (second compound 3.16 µM, first compound 0.01 µM) 1.88% | viability, T/C [17] 0.95% | viability, T/C [18] 1.2% | viability, T/C [19] 2.83% | viability, T/C [20] 4.75% | viability, T/C (second compound 10 µM, first compound 0.00316 µM) 0.83% | viability, T/C (second compound 10 µM, first compound 0.01 µM) 0.62% | viability, T/C [21] 2.12% | viability, T/C [22] 0.62% | viability, T/C [23] 6.02% | viability, T/C [24] 4.41%
< 3.16 nM: IC50 (second compound 0.316 µM) | IC50 (second compound 1 µM) | IC50 (second compound 3.16 µM) | IC50 (second compound 10 µM)
